Measurements: publication PMC12809571, “Contribution to the Chemotherapy of Human Trypanosomiasis: Design, Synthesis, and Biological Evaluation of Dimeric 2‑Nitroimidazoles against Trypanosoma cruzi Amastigotes and Bloodstream Trypanosoma brucei” (ACS Omega, 2025)
Where two headings read alike, the source gives them in different places.

Legend:
[1] = test system: amastigotes of T. cruzi (Tulahuen C2C4 LacZ strain); test: Trypanocidal activity against T. cruzi amastigotes (CPRG, infected LLC-MK2); type: cell-based, Trypanosoma cruzi
[2] = test system: amastigotes of T. cruzi (Tulahuen C2C4 LacZ strain); test: as above; type: cell-based, Trypanosoma cruzi; settings: intracellular amastigotes in LLC-MK2, 120 h; for IC50: Trypanosoma cruzi, TULAHUEN, read-out: Activity against Amastigotes of T. cruzi (Tulahuen C2C4lacZ) IC50
Experimental: The antiparasitic activity assays used amastigotes of the Tulahuen C2C4-LacZ strain of T. cruzi. Amastigotes and trypomastigotes were cultured by successive reinfections in LLC-MK2 cell monolayers in DMEM supplemented with 5% FBS and incubated at 37 °C with 5% CO2. Trypomastigotes were collected from the culture supernatant between days 5 and 10 after infection and separated from nonadhered cells by differential centrifugation.
In a flat 96-well plate, a suspension of 1 × 10^4 LLC-MK2 cells (ATCC) in DMEM supplemented with 2% FBS was added. Cells were incubated at 37 °C with 5% CO2 for 4 h to promote adhesion, then washed with PBS to remove nonadherent cells. A suspension containing 1.5 × 10^5 T. cruzi trypomastigote forms of the Tulahuen C2C4 LacZ strain was added to the cells, followed by incubation at 37 °C with 5% CO2 for 20 h to establish infection. Noninternalized parasites were removed with three successive PBS washes, then treatment with serial dilutions (50–0.08 μM) of compounds in triplicate, prediluted in DMEM with 2% FBS. Controls included untreated cells, vehicle (0.2% v/v DMSO), and blank (no parasite added). Benznidazole, in serial dilutions, served as a positive control. After 5 days (120 h), 30 μL of a 0.5 mM CPRG solution in PBS was added along with 0.9% v/v Igepal CA-630. After a 2h incubation, absorbance was measured at 570 nm using a plate reader.

[3] = Cytotoxicity against LLC-MK2 cells (MTT); type: cell-based; settings: rhesus monkey
Experimental: (§1) Mammalian lineage cells were used to assess the cytotoxicity of the tested compounds. LLC-MK2, HEK-293, and RAW-264 cells (ATCC) were cultured in Dulbecco’s Modified Eagle’s Medium (DMEM) supplemented with 5% fetal bovine serum (FBS) and incubated at 37 °C in 5% CO2, with passages every 4–5 days. Cells were detached from the monolayer using a solution containing 0.25% w/v trypsin and 0.04% EDTA.
In a flat 96-well plate, a suspension of 1 × 10^4 LLC-MK2 cells (ATCC) in DMEM supplemented with 2% FBS was added. Cells were incubated at 37 °C (5% CO2) for 20 h, then washed with phosphate-buffered saline (PBS) to remove nonadherent cells. Cells were treated with serial dilutions (200–2 μM) of compounds in triplicate, prediluted in DMEM with 2% FBS. Untreated, vehicle (0.2% v/v DMSO), and blank (no cells added) controls were included. After 120 h of incubation, the supernatant was removed, the cell monolayer washed with PBS, and the culture medium refreshed. Then, 20 μL of a 3.0 mM MTT salt solution was added, followed by two additional hours of incubation. The supernatant was removed again, and the MTT formazan crystals were dissolved by adding 120 μL of DMSO per well. After 1.5 h of dark incubation at 37 °C to dissolve the crystals, the absorbance was measured at 570 nm using a plate reader.

Chagas disease = settings: chronic phase of Chagas disease; cited from earlier work
HEK-293 cells = test: Cytotoxicity against HEK-293 cells (MTT); type: cell-based
Experimental: as §1
In a 96-well transparent plate, a suspension of 1 × 10^4 HEK-293 cells (ATCC) in DMEM medium supplemented with 10% FBS was added. Cells were incubated at 37 °C (5% CO2) for 20 h and then washed with PBS to remove nonadherent cells. The cells were treated with serial dilutions of the hybrids in triplicate (125–0.2 μM), prediluted in DMEM containing 10% FBS. The experiment included untreated controls, vehicle (0.2% v/v DMSO), and a blank (no added cells). […] Then, 20 μL of 3.0 mM MTT saline was added, followed by an additional 1.5 h of incubation. The supernatant was removed, and the MTT formazan crystals were dissolved by adding 120 μL of DMSO per well. After incubating for 1.5 h in the dark at 37 °C, the absorbance was measured at 570 nm using a plate reader.

[4] = test system: bloodstream trypomastigotes of T. b. brucei; test: Trypanocidal activity against T. brucei brucei bloodstream (MTS); type: cell-based, Trypanosoma brucei brucei
Experimental: In a transparent 96-well plate, the parasites were incubated for 48 h at a concentration of 5 × 10^4 parasites per well, for 24 h, a concentration of 10 × 10^5 parasites per well was used in Hirumi’s Modified Iscove’s (HMI-9) medium supplemented with 10% FBS and a final 100 μL/well volume. Treatment was carried out using serial dilutions of the compounds (100–0.02 μM) and fexinidazole as the reference drug, both in triplicate. Triplicates of untreated parasites (live control), parasites treated with DMSO 0.2% v/v (vehicle), and wells without parasites (blank control) served as experimental controls. After incubation, 20 μL of MTS solution (5% PMS) was added, and the sample was incubated for another 2 h. Once the plate was visibly stained–due to the soluble formazan salt produced by the action of viable parasites from the reduction of MTS–the absorbance was measured at 490 nm using a plate reader.

RAW-264.7 cells = test: Cytotoxicity against RAW-264.7 cells (MTT); type: cell-based
Experimental: as §1
In a 96-well transparent plate, a suspension of 1 × 10^4 RAW-264.7 cells (ATCC) in Roswell Park Memorial Institute (RPMI) medium supplemented with 10% FBS was added. Cells were incubated at 37 °C (5% CO2) for 20 h, then washed with PBS to remove nonadherent cells. Cells were treated with serial dilutions of the hybrids in triplicate (125–0.2 μM), prediluted in RPMI supplemented with 10% FBS. Controls included untreated samples, vehicle (0.2% v/v DMSO), and blank wells (no cells). […] Then, 20 μL of 3.0 mM MTT saline was added, followed by an additional 1.5 h of incubation. The supernatant was removed again, and the MTT formazan crystals were dissolved by adding 120 μL of DMSO per well. After incubating for 1.5 h in the dark at 37 °C to dissolve the crystals, absorbance was measured at 570 nm using a plate reader.

[5] = Homo sapiens, HEK293, 48 h, read-out: HEK-293 48 h IC50
[6] = Trypanosoma brucei, 48 h, read-out: T. b. brucei 48 h IC50
[7] = Mus musculus, RAW264.7, 48 h, read-out: RAW-264.7 48 h IC50
[8] = Homo sapiens, HEK293, 48 h; read-out: HEK-293 48 h IC50
[9] = Trypanosoma brucei, 48 h; read-out: T. b. brucei 48 h IC50
[10] = Mus musculus, RAW264.7, 48 h; read-out: RAW-264.7 48 h IC50

SMILES: O=[N+]([O-])c1ncc[nH]1 [Azomycin (3), 2-nitro-1H-imidazole, reference compound]
- SI (LLC-MK2) = (IC50 LLC-MK2)/(IC50 T. cruzi) [1]: >87.10
- IC50 [2]: 5.74 ± 1.89 µM
- IC50 at 120 h [3]: > 500 µM

SMILES: O=C(Cn1ccnc1[N+](=O)[O-])NCc1ccccc1 [Benznidazole, benznidazole, reference compound]
- SI (LLC-MK2) = (IC50 LLC-MK2)/(IC50 T. cruzi) [1]: >133.33
- IC50 [2]: 1.5 ± 0.33 µM
- cure rate (Chagas disease): less than 20%
- IC50 at 120 h ([3]; LLC-MK2 cells): > 200 µM

SMILES: O=[N+]([O-])c1nccn1CCn1ccnc1[N+](=O)[O-] [Compound 4, 1,2-Bis(2-nitro-1H-imidazol-1-yl)ethane]
- SI (LLC-MK2) = (IC50 LLC-MK2)/(IC50 T. cruzi) [1]: >21.90
- IC50 (HEK-293 cells; [5]): > 125 µM
- IC50 [2]: 9.13 ± 0.93 µM
- SI (HEK-293) = (IC50 HEK-293)/(IC50 T. brucei brucei) [4]: >5.83
- SI (RAW-264.7) = (IC50 RAW-264.7)/(IC50 T. brucei brucei) [4]: >5.83
- IC50 [4, 6]: 21.4 ± 1.15 µM
- IC50 (RAW-264.7 cells; [7]): > 125 µM
- IC50 at 120 h [3]: > 200 µM

SMILES: O=[N+]([O-])c1nccn1CCCn1ccnc1[N+](=O)[O-] [Compound 5, 1,3-Bis(2-nitro-1H-imidazol-1-yl)propane]
- SI (LLC-MK2) = (IC50 LLC-MK2)/(IC50 T. cruzi) [1]: >62.50
- IC50 (HEK-293 cells; [5]): > 125 µM
- IC50 [2]: 3.2 ± 0.58 µM
- IC50 [4, 6]: 16.4 ± 2.65 µM
- IC50 (RAW-264.7 cells; [7]): > 125 µM
- IC50 at 120 h [3]: > 200 µM

SMILES: O=[N+]([O-])c1nccn1CCCCn1ccnc1[N+](=O)[O-] [Compound 6, 1,4-Bis(2-nitro-1H-imidazol-1-yl)butane]
- SI (LLC-MK2) = (IC50 LLC-MK2)/(IC50 T. cruzi) [1]: >75.18
- IC50 (HEK-293 cells; [8]): > 125 µM
- IC50 [2]: 2.66 ± 0.78 µM
- SI (HEK-293) = (IC50 HEK-293)/(IC50 T. brucei brucei) [4]: >5.02
- SI (RAW-264.7) = (IC50 RAW-264.7)/(IC50 T. brucei brucei) [4]: >5.02
- IC50 [4, 9]: 24.9 ± 7.89 µM
- IC50 (RAW-264.7 cells; [10]): > 125 µM
- IC50 at 120 h [3]: > 200 µM

SMILES: O=[N+]([O-])c1nccn1CCCCCn1ccnc1[N+](=O)[O-] [Compound 7, 1,5-Bis(2-nitro-1H-imidazol-1-yl)pentane]
- SI (LLC-MK2) = (IC50 LLC-MK2)/(IC50 T. cruzi) [1]: >144.9
- IC50 (HEK-293 cells; [8]): > 125 µM
- IC50 [2]: 1.38 ± 0.24 µM
- SI (HEK-293) = (IC50 HEK-293)/(IC50 T. brucei brucei) [4]: >12.42
- SI (RAW-264.7) = (IC50 RAW-264.7)/(IC50 T. brucei brucei) [4]: >12.42
- IC50 [4, 9]: 10.1 ± 2.47 µM
- IC50 (RAW-264.7 cells; [10]): > 125 µM
- IC50 at 120 h [3]: > 200 µM

SMILES: O=[N+]([O-])c1nccn1CCCCCCn1ccnc1[N+](=O)[O-] [Compound 8, 1,6-Bis(2-nitro-1H-imidazol-1-yl)hexane]
- SI (LLC-MK2) = (IC50 LLC-MK2)/(IC50 T. cruzi) [1]: >338.98
- IC50 (HEK-293 cells; [8]): 87.4 ± 1.2 µM
- IC50 [2]: 0.59 ± 0.01 µM
- Activity against Amastigotes of T. cruzi (Tulahuen C2C4lacZ) IC50 [2]: submicromolar range
- SI (HEK-293) = (IC50 HEK-293)/(IC50 T. brucei brucei) [4]: 16.27
- SI (RAW-264.7) = (IC50 RAW-264.7)/(IC50 T. brucei brucei) [4]: >23.27
- IC50 [4, 9]: 5.37 ± 3.15 µM
- IC50 (RAW-264.7 cells; [10]): > 125 µM
- IC50 at 120 h [3]: > 200 µM

SMILES: O=[N+]([O-])c1nccn1CCCCCCCCn1ccnc1[N+](=O)[O-] [Compound 9, 1,8-Bis(2-nitro-1H-imidazol-1-yl)octane]
- SI (LLC-MK2) = (IC50 LLC-MK2)/(IC50 T. cruzi) [1]: >84.03
- IC50 (HEK-293 cells; [8]): 22.3 ± 1.08 µM
- IC50 [2]: 1.19 ± 0.31 µM
- SI (HEK-293) = (IC50 HEK-293)/(IC50 T. brucei brucei) [4]: 2.79
- SI (RAW-264.7) = (IC50 RAW-264.7)/(IC50 T. brucei brucei) [4]: 8.98
- IC50 [4, 9]: 7.98 ± 3.12 µM
- IC50 (RAW-264.7 cells; [10]): 71.7 ± 3.67 µM
- IC50 at 120 h [3]: > 100 µM

SMILES: O=[N+]([O-])c1nccn1CCCCCCCCCCn1ccnc1[N+](=O)[O-] [Compound 10, 1,10-Bis(2-nitro-1H-imidazol-1-yl)decane]
- SI (LLC-MK2) = (IC50 LLC-MK2)/(IC50 T. cruzi) [1]: >208.33
- IC50 (HEK-293 cells; [8]): 35.1 ± 5.31 µM
- IC50 [2]: 0.48 ± 0.11 µM
- Activity against Amastigotes of T. cruzi (Tulahuen C2C4lacZ) IC50 [2]: submicromolar range
- SI (HEK-293) = (IC50 HEK-293)/(IC50 T. brucei brucei) [4]: 1.67
- SI (RAW-264.7) = (IC50 RAW-264.7)/(IC50 T. brucei brucei) [4]: 4.67
- IC50 [4, 9]: 21 ± 1.9 µM
- IC50 (RAW-264.7 cells; [10]): 98.4 ± 9.39 µM
- IC50 at 120 h [3]: > 100 µM

SMILES: O=[N+]([O-])c1nccn1CCCCCCCCCCCCn1ccnc1[N+](=O)[O-] [Compound 11, 1,12-Bis(2-nitro-1H-imidazol-1-yl)dodecane]
- SI (LLC-MK2) = (IC50 LLC-MK2)/(IC50 T. cruzi) [1]: 85.88
- IC50 (HEK-293 cells; [8]): 102 ± 8.54 µM
- IC50 [2]: 0.61 ± 0.13 µM
- Activity against Amastigotes of T. cruzi (Tulahuen C2C4lacZ) IC50 [2]: submicromolar range
- SI (HEK-293) = (IC50 HEK-293)/(IC50 T. brucei brucei) [4]: 57.01
- SI (RAW-264.7) = (IC50 RAW-264.7)/(IC50 T. brucei brucei) [4]: >69.83
- IC50 [4, 9]: 1.79 ± 0.63 µM
- IC50 (RAW-264.7 cells; [10]): > 125 µM
- IC50 at 120 h [3]: 52.4 ± 4.13 µM

SMILES: CSc1ccc(OCc2ncc([N+](=O)[O-])n2C)cc1 [Fexinidazole, fexinidazole, reference compound]
- IC50 [4, 9]: 1.2 ± 0.51 µM

SMILES: CC1CS(=O)(=O)CCN1/N=C/c1ccc([N+](=O)[O-])o1 (centres unmarked) [nifurtimox]
- cure rate (Chagas disease): less than 20%
